Organism: Rattus norvegicus
Test: Open TG-GATES - Regimen: Single
Assay type: toxicity, organism-based, Sprague-Dawley
Parameters: regimen Single, gender Male, age 6 weeks
Conditions: in vivo, po, 300 mg/kg, route gavage, dose level High; for APTT / Bas / Eos / Fbg / Hb / Ht / Lym / MCH / MCHC / MCV / Mono / Neu / PT / Plat / RBC / Ret / WBC: tissue Blood; for KIDNEY_L / KIDNEY_R / KIDNEY_TOTAL: tissue Kidney; for LIVER: tissue Liver; for A/G / ALP / ALT / AST / BUN / CRE / Ca / Cl / DBIL / GLC / IP / K / LDH / Na / PL / RALB / TBIL / TC / TG / TP / gamma-GTP: tissue Plasma

ClC(Cl)(Cl)Cl [CARBON TETRACHLORIDE]
TERMINAL_BW (3 h): 206.7 g
APTT (3 h): 18.3 s
Bas (3 h): 0%
Eos (3 h): 1%
Fbg (3 h): 242 mg/dL
Hb (3 h): 13 g/dL
Ht (3 h): 37.2%
Lym (3 h): 74.4%
MCH (3 h): 21.8 pg
MCHC (3 h): 34.9%
MCV (3 h): 62.4 fL
Mono (3 h): 2.2%
Neu (3 h): 21.8%
PT (3 h): 12.5 s
Plat (3 h): 125.5 x10_4/uL
RBC (3 h): 595.8 x10_4/ul
Ret (3 h): 8.9%
WBC (3 h): 76.7 x10_2/uL
KIDNEY_L (3 h): 0.9 g
KIDNEY_R (3 h): 0.9 g
KIDNEY_TOTAL (3 h): 1.8 g
LIVER (3 h): 9.4 g
A/G (3 h): 1.6
ALP (3 h): 909.4 IU/L
ALT (3 h): 39.4 IU/L
AST (3 h): 67.8 IU/L
BUN (3 h): 12.2 mg/dL
CRE (3 h): 0.4 mg/dL
Ca (3 h): 10.5 mg/dL
Cl (3 h): 104 meq/L
DBIL (3 h): 0.1 mg/dL
GLC (3 h): 187.4 mg/dL
IP (3 h): 10.1 mg/dL
K (3 h): 3.8 meq/L
LDH (3 h): 201.4 IU/L
Na (3 h): 140 meq/L
PL (3 h): 156.4 mg/dL
RALB (3 h): 3.3 g/dL
TBIL (3 h): 0.2 mg/dL
TC (3 h): 79.2 mg/dL
TG (3 h): 90.8 mg/dL
TP (3 h): 5.4 g/dL
gamma-GTP (3 h): 1.2 IU/L
TERMINAL_BW (6 h): 208.2 g
APTT (6 h): 18.5 s
Bas (6 h): 0%
Eos (6 h): 0.8%
Fbg (6 h): 231.4 mg/dL
Hb (6 h): 13.1 g/dL
Ht (6 h): 37.9%
Lym (6 h): 77.2%
MCH (6 h): 21.3 pg
MCHC (6 h): 34.6%
MCV (6 h): 61.7 fL
Mono (6 h): 3%
Neu (6 h): 18.4%
PT (6 h): 13 s
Plat (6 h): 125.2 x10_4/uL
RBC (6 h): 614.2 x10_4/ul
Ret (6 h): 8.6%
WBC (6 h): 96.7 x10_2/uL
KIDNEY_L (6 h): 0.9 g
KIDNEY_R (6 h): 0.9 g
KIDNEY_TOTAL (6 h): 1.8 g
LIVER (6 h): 9.1 g
A/G (6 h): 1.7
ALP (6 h): 830.8 IU/L
ALT (6 h): 29.8 IU/L
AST (6 h): 65.2 IU/L
BUN (6 h): 10.4 mg/dL
CRE (6 h): 0.4 mg/dL
Ca (6 h): 10.5 mg/dL
Cl (6 h): 103.2 meq/L
DBIL (6 h): 0.086 mg/dL
GLC (6 h): 201.8 mg/dL
IP (6 h): 10.1 mg/dL
K (6 h): 4 meq/L
LDH (6 h): 205.8 IU/L
Na (6 h): 139.6 meq/L
PL (6 h): 150.4 mg/dL
RALB (6 h): 3.4 g/dL
TBIL (6 h): 0.1 mg/dL
TC (6 h): 73 mg/dL
TG (6 h): 68.2 mg/dL
TP (6 h): 5.5 g/dL
gamma-GTP (6 h): 1.2 IU/L
TERMINAL_BW (9 h): 203.7 g
APTT (9 h): 19.1 s
Bas (9 h): 0%
Eos (9 h): 1%
Fbg (9 h): 232.6 mg/dL
Hb (9 h): 13.3 g/dL
Ht (9 h): 37.9%
Lym (9 h): 80.4%
MCH (9 h): 21.5 pg
MCHC (9 h): 35%
MCV (9 h): 61.7 fL
Mono (9 h): 2.8%
Neu (9 h): 16%
PT (9 h): 12.5 s
Plat (9 h): 137.8 x10_4/uL
RBC (9 h): 615.2 x10_4/ul
Ret (9 h): 8.7%
WBC (9 h): 72.4 x10_2/uL
KIDNEY_L (9 h): 0.9 g
KIDNEY_R (9 h): 0.9 g
KIDNEY_TOTAL (9 h): 1.8 g
LIVER (9 h): 8.8 g
A/G (9 h): 1.5
ALP (9 h): 987.6 IU/L
ALT (9 h): 28.4 IU/L
AST (9 h): 63.2 IU/L
BUN (9 h): 9.4 mg/dL
CRE (9 h): 0.4 mg/dL
Ca (9 h): 10.5 mg/dL
Cl (9 h): 103 meq/L
DBIL (9 h): 0.1 mg/dL
GLC (9 h): 193 mg/dL
IP (9 h): 10.4 mg/dL
K (9 h): 3.9 meq/L
LDH (9 h): 200.2 IU/L
Na (9 h): 139.4 meq/L
PL (9 h): 150.8 mg/dL
RALB (9 h): 3.3 g/dL
TBIL (9 h): 0.2 mg/dL
TC (9 h): 71 mg/dL
TG (9 h): 80.2 mg/dL
TP (9 h): 5.5 g/dL
gamma-GTP (9 h): 1.2 IU/L
TERMINAL_BW (24 h): 212.9 g
APTT (24 h): 19.3 s
Bas (24 h): 0%
Eos (24 h): 1%
Fbg (24 h): 225.4 mg/dL
Hb (24 h): 13.5 g/dL
Ht (24 h): 38.6%
Lym (24 h): 79%
MCH (24 h): 22.4 pg
MCHC (24 h): 34.8%
MCV (24 h): 64.4 fL
Mono (24 h): 3.8%
Neu (24 h): 15.6%
PT (24 h): 12.6 s
Plat (24 h): 131.5 x10_4/uL
RBC (24 h): 599.6 x10_4/ul
Ret (24 h): 7.8%
WBC (24 h): 110.3 x10_2/uL
KIDNEY_L (24 h): 1 g
KIDNEY_R (24 h): 1 g
KIDNEY_TOTAL (24 h): 2 g
LIVER (24 h): 10.2 g
A/G (24 h): 1.6
ALP (24 h): 1310.2 IU/L
ALT (24 h): 42.2 IU/L
AST (24 h): 75 IU/L
BUN (24 h): 16.4 mg/dL
CRE (24 h): 0.4 mg/dL
Ca (24 h): 10.8 mg/dL
Cl (24 h): 103.8 meq/L
DBIL (24 h): 0.08 mg/dL
GLC (24 h): 183.8 mg/dL
IP (24 h): 8 mg/dL
K (24 h): 3.9 meq/L
LDH (24 h): 192.6 IU/L
Na (24 h): 140 meq/L
PL (24 h): 139.6 mg/dL
RALB (24 h): 3.5 g/dL
TBIL (24 h): 0.1 mg/dL
TC (24 h): 61.4 mg/dL
TG (24 h): 69.6 mg/dL
TP (24 h): 5.6 g/dL
gamma-GTP (24 h): 1 IU/L

From ChEMBL document CHEMBL3885861, “Open TG-GATES”
